One test concerns the target T1, mGluR5 receptor (pig) (Sus scrofa, UniProt I3LUI7).
T1 construct: 450 μg protein from brain homogenate is incubated with 5 nM; from tissue; host or cells: pig brain halves without medulla, cerebellum and pons; homogenate, differential centrifugation
The experiment in a line: [3H]-MPEP binding assay, pig brain homogenate. As to conditions: displacement of 5 nM [3H]-MPEP, 450 μg protein from pig brain homogenate, 60 min, room temperature; read-out: IC50 [3H]-MPEP bond mGluR5 receptor (pig). Here is the method: Substituted imidazo[2,1-b]thiazole compounds corresponding to the foregoing formula I are likewise particularly preferred, which, after 60 minutes of incubation in 450 μg protein from pig brain homogenate at a temperature between 20° C. and 25° C. in a concentration of less than 2500 nM, preferably less than 1000 nM, particularly preferably less than 700 nM, very particularly preferably less than 100 nM, even more preferably less than 70 nM, bring about a 50-percent displacement of [^3H]-2-methyl-6-(3-methoxyphenyl)-ethynylpyridine which is present in a concentration of 5 nM. The determination of the displacement of [^3H]-2-methyl-6-(3-methoxyphenyl)-ethynyl-pyridine is performed as described hereinafter in the section Pharmacological Methods, I. Method for determining the inhibition of [^3H]-MPEP-bonding in the mGluR5 receptor bonding assay.
1. Method for Determining the Affinity to the mGluR5 Receptor
Pig brain homogenate is produced by homogenization (Polytron PT 3000, Kinematica AG, 10,000 rpm for 90 seconds) of pig brain halves without medulla, cerebellum and pons in buffer pH 8.0 (30 mM Hepes, Sigma, order no. H3375+1 tablet complete to 100 ml, Roche Diagnostics, order no. 1836145) in ratio 1:20 (brain weight/volume) and differential centrifugation at 900×g and 40,000×g. In each case, 450 μg protein from brain homogenate is incubated with 5 nM ^3-[H]-MPEP (Tocris, order no. R1212) (MPEP=2-methyl-6-(3-methoxyphenyl)-ethynylpyridine) in 250 μl incubation batches in 96 well microtitration plates and the compounds to be tested (10 μM in the test) in buffer (as above) at room temperature for 60 min.
Thereafter, the batches are filtered with the help of a Brandel Cell Harvester (Brandel, TYP Robotic 9600) on unifilter plates with glass fibre filter mats (Perkin Elmer, order no. 6005177) and subsequently washed with buffer (as above) 3 times with in each case 250 μl per sample. The filter plates are subsequently dried for 60 min at 55° C. 30 μL Ultima Gold™ scintillator is subsequently added per well (Packard BioScience, order no. 6013159) and the samples are measured after 3 hours on the β-counter (Mikrobeta, Perkin Elmer). The unspecific bond is determined by addition of 10 μM MPEP (Tocris, order no. 1212).

Another test has as its system rat. The experiment in a line: Formalin test in rats (phase 2, chronic pain component). Conditions: p.o., 10 mg/kg, administered 30 min before formalin. In kind it is in vivo. Here is the method: 2a. Formalin Test in Rats The formalin test (Dubuisson, D. and Dennis, S. G., 1977, Pain, 4, 161-174) represents a model for acute and chronic pain. A biphasic nociceptive reaction, which is recorded by observation of three clearly differentiable behavioural patterns, is induced by a single formalin injection into the dorsal side of a rear paw in freely mobile test animals. The reaction has two phases: Phase 1=Immediate reaction (duration up to 10 min; paw shaking, licking), Phase 2=Late reaction (after a rest phase; likewise, paw shaking, licking; duration up to 60 min). The 1st phase reflects a direct stimulation of the peripheral nocisensors with high spinal nociceptive input or glutamate release (acute pain phase); the 2nd phase reflects a spinal and peripheral hypersensitisation (chronic pain phase). In the investigations presented here, the chronic pain component (phase 2) was evaluated. Formalin with a volume of 50 μl and a concentration of 5% is administered subcutaneously into the dorsal side of the right rear paw of each animal. The substances to be tested are administered 30 min before the formalin injection orally (p.o), intravenously (i.v.) or intraperitoneally (i.p.). The specific changes in behavior such as lifting and shaking the paw, shifts in weight of the animal as well as biting and licking reactions are observed and registered in the period of observation from 21 to 27 min after formalin injection. The various forms of behavior are summarized in the so-called pain rate (PR), which, relative to the sub-intervals of 3 min, represents the calculation of an average nociception reaction. […] The group size is 10 animals (n=10). 2b. Formalin Test in Mice

Another test deals with T2, mGluR5 receptor (human) (Homo sapiens, UniProt P41594).
T2 construct: host or cells: CHO-hmGluR5 cells (purchased cell line; incubated overnight with doxycycline)
Briefly: Functional Ca2+ influx assay in CHO-hmGluR5 cells (DHPG-stimulated, FLIPR). The class given is cell-based. Conditions: 10 μM DHPG, Ki=IC50/(1+AGConc./EC50). Here is the method: The data is analyzed by means of a 1-factorial ANOVA (comparison of treatment groups versus vehicle group). The significance level is set at p<0.05. All the groups have a size of N=10. The test is also described in Hogg, S. (1996) “A review of the validity and variability of the elevated plus-maze as an animal model of anxiety,” Pharmacol. Biochem. Behav. 54, 21-30, and in Rodgers, R. J., Cole, J. C. (1994) “The elevated plus-maze: pharmacology, methodology and ethology,” in Cooper, S. J., Hendrie, C. A. (eds.) Ethology and Psychopharmacology. Wiley & Sons; pp. 9-44. 5. Description of the Functional Ca^2+ Influx Assay […]
After recording the fluorescence base line for 10 sec., 50 μl test substance solution (various test substance concentrations in HBSS buffer with 1% DMSO and 0.02% Tween 20, Sigma) is added and the fluorescence signal is measured for 6 min. 50 μl DHPG solution ((S)-3,5-dihydroxyphenylglycine, Tocris Biotrend Chemikalien GmbH, Cologne, Germany, final DHPG concentration: 10 μM) is subsequently added and the inflow of Ca^2+ is simultaneously measured for 60 sec. […] The data is analysed with Microsoft Excel and GraphPad Prism. The dose-effect curves are calculated with non-linear regression and IC50 values determined. Each data point is determined 3 times and IC50 values are averaged from a minimum of 2 independent measurements. […]

T1 sequence (I3LUI7 19-1212): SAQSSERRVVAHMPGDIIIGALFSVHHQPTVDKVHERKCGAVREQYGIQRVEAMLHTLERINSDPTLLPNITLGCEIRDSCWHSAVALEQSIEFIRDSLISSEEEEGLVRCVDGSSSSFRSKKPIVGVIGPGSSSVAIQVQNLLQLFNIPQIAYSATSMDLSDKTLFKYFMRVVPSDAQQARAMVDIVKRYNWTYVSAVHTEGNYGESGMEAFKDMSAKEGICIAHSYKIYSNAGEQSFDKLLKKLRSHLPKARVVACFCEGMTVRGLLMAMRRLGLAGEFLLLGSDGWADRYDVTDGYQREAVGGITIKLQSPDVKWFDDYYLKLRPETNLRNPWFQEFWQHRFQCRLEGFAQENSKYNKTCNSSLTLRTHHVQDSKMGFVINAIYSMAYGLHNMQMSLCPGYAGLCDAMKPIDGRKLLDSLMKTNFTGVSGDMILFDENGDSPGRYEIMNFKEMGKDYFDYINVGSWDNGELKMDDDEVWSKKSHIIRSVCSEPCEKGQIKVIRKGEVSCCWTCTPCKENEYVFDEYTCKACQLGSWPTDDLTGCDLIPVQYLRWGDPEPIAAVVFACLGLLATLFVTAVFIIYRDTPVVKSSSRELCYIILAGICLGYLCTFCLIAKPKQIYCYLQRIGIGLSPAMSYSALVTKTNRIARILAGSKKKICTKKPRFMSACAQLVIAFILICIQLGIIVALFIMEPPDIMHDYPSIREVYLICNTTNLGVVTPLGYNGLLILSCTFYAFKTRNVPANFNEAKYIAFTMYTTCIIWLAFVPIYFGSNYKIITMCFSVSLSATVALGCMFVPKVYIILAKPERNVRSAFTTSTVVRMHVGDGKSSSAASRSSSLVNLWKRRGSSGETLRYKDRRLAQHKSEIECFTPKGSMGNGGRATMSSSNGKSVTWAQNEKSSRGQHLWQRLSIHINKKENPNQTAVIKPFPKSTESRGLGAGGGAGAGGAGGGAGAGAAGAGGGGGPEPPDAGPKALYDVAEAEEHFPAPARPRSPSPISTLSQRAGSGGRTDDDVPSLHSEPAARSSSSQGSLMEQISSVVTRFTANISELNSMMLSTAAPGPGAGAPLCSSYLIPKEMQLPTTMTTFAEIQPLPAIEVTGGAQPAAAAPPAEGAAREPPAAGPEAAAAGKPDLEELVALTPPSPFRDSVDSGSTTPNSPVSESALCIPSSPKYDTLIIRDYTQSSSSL
T2 sequence (P41594 21-1212): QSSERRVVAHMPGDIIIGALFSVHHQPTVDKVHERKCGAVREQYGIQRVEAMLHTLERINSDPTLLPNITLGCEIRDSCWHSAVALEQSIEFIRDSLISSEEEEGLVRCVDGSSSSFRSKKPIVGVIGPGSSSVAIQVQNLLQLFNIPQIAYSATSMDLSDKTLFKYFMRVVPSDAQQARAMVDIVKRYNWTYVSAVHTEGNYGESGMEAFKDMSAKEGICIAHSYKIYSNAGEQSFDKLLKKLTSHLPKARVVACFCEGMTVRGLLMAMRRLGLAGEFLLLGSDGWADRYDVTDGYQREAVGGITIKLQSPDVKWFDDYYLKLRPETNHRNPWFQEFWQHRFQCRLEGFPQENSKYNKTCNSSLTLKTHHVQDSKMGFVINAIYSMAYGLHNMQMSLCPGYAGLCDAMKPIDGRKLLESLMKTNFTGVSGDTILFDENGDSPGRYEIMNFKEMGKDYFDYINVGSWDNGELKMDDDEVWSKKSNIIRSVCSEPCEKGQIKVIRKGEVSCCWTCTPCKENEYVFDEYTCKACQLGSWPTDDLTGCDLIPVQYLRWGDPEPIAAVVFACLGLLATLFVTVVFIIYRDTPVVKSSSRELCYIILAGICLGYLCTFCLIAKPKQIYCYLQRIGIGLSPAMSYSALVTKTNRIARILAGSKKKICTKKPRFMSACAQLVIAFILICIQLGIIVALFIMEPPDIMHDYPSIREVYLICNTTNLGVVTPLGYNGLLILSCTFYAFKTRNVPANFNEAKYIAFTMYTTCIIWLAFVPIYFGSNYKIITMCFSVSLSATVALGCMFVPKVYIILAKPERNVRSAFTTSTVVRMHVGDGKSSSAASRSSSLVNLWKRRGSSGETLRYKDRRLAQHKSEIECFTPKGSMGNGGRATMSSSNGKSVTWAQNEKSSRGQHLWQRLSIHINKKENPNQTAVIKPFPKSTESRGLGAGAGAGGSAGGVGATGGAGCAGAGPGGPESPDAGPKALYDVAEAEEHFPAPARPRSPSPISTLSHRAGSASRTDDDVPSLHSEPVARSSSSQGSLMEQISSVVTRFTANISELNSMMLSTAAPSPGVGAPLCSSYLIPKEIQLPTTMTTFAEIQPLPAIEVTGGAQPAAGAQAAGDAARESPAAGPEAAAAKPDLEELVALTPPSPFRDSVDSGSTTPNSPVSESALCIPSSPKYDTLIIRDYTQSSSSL

`Cc1cn2c(NC(C)(C)C)c(-c3ccc(C#Cc4ccccn4)s3)nc2s1` [Example 4, N-tert-butyl-2-methyl-6-(5-(pyridine-2-ylethynyl)thiophene-2-yl)imidazo[2,1-b]thiazole-5-amine]: the half-inhibitory concentration (IC50) on mGluR5 receptor (pig) was 5.5 nM. Moreover, the “Formalin test (rat) p.o. Reduction in the nociceptive behavior over controls at 10 mg/kg” value with rat is 62%. In addition, the Ki on mGluR5 receptor (human) worked out at 0.31 nM.
For `CC(C)(C)Nc1c(-c2ccc(C#Cc3ccncc3)s2)nc2sccn12` [Example 7, N-tert-butyl-6-(5-(pyridine-4-ylethinyl)thiophene-2-yl)imidazo[2,1-b]thiazole-5-amine], the IC50 at mGluR5 receptor (pig) is 3 nM. At mGluR5 receptor (human), this molecule yielded a Ki of 0.26 nM.

Source of the values: patent US7893069B2, “Substituted imidazo[2,1-b]thiazole compounds and uses thereof” (Gruenenthal GmbH, priority 2006, dated 2011).
